Data on 5 compounds can be found in article PMC5834442, “Identifying inhibitors of the Leishmania inositol phosphorylceramide synthase with antiprotozoal activity using a yeast-based assay and ultra-high throughput screening platform” (Scientific Reports, 2018).

Experiment [1] relates to L. donovani (MHOM/SD/62/1S-CL2D, LdBOB) axenic amastigotes. The experiment can be described thus: Leishmania donovani axenic amastigote dose response assay (resazurin). It counts as cell-based. In general terms: The colour change of resazurin is a common sign of viable cells or microbes.
The subject of the next experiment is HepG2 cells. The experiment can be described thus: Mammalian cell cytotoxicity assay (CellTiter-Glo). It counts as cell-based, human. A general note: In ATP-based viability assays light output follows the ATP content of the culture.
The subject of experiment [2] is intra-macrophage Leishmania donovani amastigotes. The experiment can be described thus: Intramacrophage Leishmania donovani assay (high content imaging). The format is cell-based. The following applies: for IC50: Leishmania donovani.
Another experiment concerns THP-1 macrophages. The experiment can be described thus: Host cell toxicity in the intramacrophage assay. The format is cell-based, human.
For another experiment, the target named is T1, LmjFIPCS (Leishmania major, UniProt E9AFX2).
T1 construct: The complete open reading frames of LmjFIPCS and AUR1p was amplified from genomic DNA; made in house
T1 sequence (E9AFX2 whole entry): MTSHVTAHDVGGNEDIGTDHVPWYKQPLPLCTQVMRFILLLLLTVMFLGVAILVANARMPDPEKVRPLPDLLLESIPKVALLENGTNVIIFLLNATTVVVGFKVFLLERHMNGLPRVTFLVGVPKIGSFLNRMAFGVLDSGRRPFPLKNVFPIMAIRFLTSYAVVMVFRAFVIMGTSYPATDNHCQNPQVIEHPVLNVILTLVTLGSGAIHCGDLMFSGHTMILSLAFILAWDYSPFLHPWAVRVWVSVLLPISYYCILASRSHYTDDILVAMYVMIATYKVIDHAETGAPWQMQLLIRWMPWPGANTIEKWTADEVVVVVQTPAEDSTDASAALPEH
The experiment can be described thus: Biochemical LmjFIPCS assay with CHAPS-washed microsomal membranes. The following applies: for IC50: read-out: pIC50 against LmjFIPCS in vitro (converted). Here is the method:
Utilizing the availability of an in-house designed and validated biochemical assay for LmjFIPCS[19],[22], following re-synthesis in the free-base form (Aptuit, Verona, Italy) the two benzazepane hits were biochemically analyzed in a dose response assay (8 compound concentrations between 100 μM and 46 nM; Fig. 5). […].
Microsomal material was prepared and CHAPS washed from α ade^−.lys^−.leu^−.Δaur1^−.pESC-LEU_ LmjFIPCS as previously described[19],[22]. Briefly, each compound at the desired concentration was incubated, in at least triplicate, in 96-well plates (Corning) in phosphate buffer (71.4 mM, pH 7.0) with PI (100 µM, final concentration, Avanti Polar Lipids), CHAPS (600 µM, Sigma-Aldrich) and CHAPS-washed microsomal membranes (0.6 U enzyme per reaction) for 15 minutes at 30 °C. NBD-C6-ceramide (5 µM; ThermoFisher) was added, final volume of 40 µl per well, and the plates incubated at 30 °C for a further 25 minutes. […]. Analyses were carried out using GraphPad Prism 7.

Experiment [3] has as its system L. major (MHOM/IL/81/Friedlin) wild type. The experiment can be described thus: L. major axenic cell assay (alamarBlue), wild type. It counts as cell-based. The following applies: Leishmania major; −logIC50 M; 72 hours; read-out: pIC50 against wild type Leishmania major (converted). From the text:
(§1) However, whilst compound 1 was antiprotozoal and a potent IPC synthase inhibitor, it was unclear whether the mode of action was on-target. To analyze this further, the in-house availability of a sphingolipid mutant L. major (Δlcb2) was exploited. This line[24] lacks serine palmitoyltransferase activity, and whilst LmjFIPCS is still present it is redundant in the absence of in situ substrate. […] […]. Therefore, it is likely that off-target activity has a role in the antileishmanial activity of this benzazepane.
(§2) From a previously described protocol, L. major (MHOM/IL/81/Friedlin, wild type and ΔLCB2 mutant)[24] were added to 96-well plates (Corning) at 1 × 10^4 ml^−1 in growth media with appropriate concentrations of compounds and controls (vehicle and assay media alone, with the robustness of the platform indicated by Z’ values > 0.5)[29] in 100 µl. […]. Analyses were carried out using GraphPad Prism 7.

The next experiment has as its system L. major Δlcb2 mutant. The experiment can be described thus: L. major axenic cell assay (alamarBlue), sphingolipid mutant Δlcb2. It counts as cell-based. The following applies: Leishmania major, 72 h, read-out: pIC50 against L. major Δlcb2 mutant (converted).
From the text: as §1, §2

Another experiment concerns the target T2, in cellulo LmjFIPCS (Leishmania major, UniProt E9AFX2).
T2 construct: endogenous in cells; host or cells: L. major (MHOM/IL/81/Friedlin) Δlcb2 mutant
The experiment can be described thus: In cellulo IPC synthase assay (BODIPY FL C5-ceramide incorporation into IPC, HPTLC). The format is cell-based. The following applies: L. major ΔLCB2, 10 μM of compound, compared with compound 1. The procedure:
Figure 7 In cellulo activity against LmjFIPCS. […] L. major ΔLCB2 treated with 10 μM of compound prior to metabolic labelling with BODIPY FL C5-ceramide. Inhibition of the incorporation of label into IPC was measured following HPTLC in comparison with a control (vehicle treated). […]. P = 0.006 in students’ t-test indicating the difference is significant (**≤ 0.01).
The L. major Δlcb2 mutant, maintained in Schneider’s media (Sigma-Aldrich) with 15% sera (ThermoFisher), were washed and 200 µl, at 1 × 10^7 ml^−1, incubated in serum free media for 60 minutes at 26 °C before the addition of 10 µM of the compounds, in at least triplicate, and further incubation for 18 hours. Subsequently, the reaction was initiated by the addition of BODIPY FL C5-ceramide complexed to BSA (1.25 µl of 0.5 mM, ThermoFisher). Following further incubation at 26 °C for 1 hour, the lipids were extracted by phase separation in chloroform:methanol:water (10:10:3, 200 µl) and fractionated on HTPLC plates, as previously. The fluorescence was read at Ex475/Em520 using a Fuji FLA-3000 plate reader and AIDA Image Analyser software (version 3.52).

The mark [4] stands for this setting: −logIC50 M, 72 hours, read-out: pIC50 against axenic L. donovani amastigotes (converted).
Setting [5] is: −logIC50 M, L. donovani infected THP-1 macrophages, 96 hours, read-out: pIC50 against intra-macrophage L. donovani amastigotes (converted).
Where [6] appears, read: −logIC50 M, biochemical assay, at least 3 independent experiments.

“Also recorded” adds a separate entry of the source. Where two headings read alike, the source gives them in different places. Where only a bound is given, the exact number is not on record here.

T2 sequence (E9AFX2 whole entry): as above

With `CC(C)CCN1C(=O)C(N)C(=O)N(CC2CCCCC2)c2ccccc21` (stereo not drawn) [VMTA/1987/36/2], the IC50 in experiment [1] (-logIC50 mol against L. donovani (LdBOB) axenic amastigotes, read-out: pIC50 Axenic (converted)) is 2 µM; in the experiment with HepG2 cells (Homo sapiens, -logIC50 mol against HepG2, read-out: PIC50 HepG2 (converted)) it was 81.3 µM; in experiment [2] (intramacrophage L. donovani amastigotes, read-out: pIC50 InMac (converted)), 8.13 µM; in the experiment with THP-1 macrophages (Homo sapiens, THP-1 host cells in intramacrophage assay, read-out: pIC50 THP-1 (converted)), greater than 50.1 µM. In addition, the “pSI v HepG2” value in the experiment with HepG2 cells (selectivity, pIC50 axenic minus pIC50 HepG2) is 1.61. In the experiment with THP-1 macrophages (selectivity, pIC50 InMac minus pIC50 THP-1), the “pSI v THP-1” value amounted to 0.79.

Consider `O=S(=O)(c1ccc2c(c1)CCN(Cc1ccc(F)cc1)CC2)n1cccc1` [compound 1], for which the IC50 in experiment [1] (setting [4]) is 0.0251 µM; in experiment [2] (setting [5]), 3.16 µM; at LmjFIPCS (setting [6]), 0.158 µM; in experiment [3], 3.16 µM; in the experiment with L. major Δlcb2 mutant, 3.16 µM.

Consider `O=S(=O)(c1ccc2c(c1)CCN(Cc1cccnc1)CC2)n1ccc2c(F)cccc21` [compound 2], for which the IC50 in experiment [1] (setting [4]) was 0.398 µM; in experiment [2] (setting [5]) it was 2 µM; at LmjFIPCS (setting [6]), 6.31 µM.

Turning to `O=S(=O)(c1ccc2c(c1)CCN(Cc1cccnc1)CC2)n1cccc1` [compound 6], the “pIC50 against LmjFIPCS in vitro” value against LmjFIPCS (setting [6]) was “lost activity”.

Regarding `O=S(=O)(c1ccc2c(c1)CCN(Cc1ccc(F)cc1)CC2)n1ccc2c(F)cccc21` [compound 7], in experiment [2] (−logIC50 M, L. donovani infected THP-1 macrophages, 96 hours), the “pIC50 against intra-macrophage L. donovani amastigotes” value was “lost”. The “maximal inhibition of LmjFIPCS in vitro” value on LmjFIPCS (even at higher concentrations) is no more than 60%. Further, the IC50 was 0.0631 µM on LmjFIPCS (setting [6]), 3.16 µM in experiment [3] and greater than 10 µM in the experiment with L. major Δlcb2 mutant. Also, the “in cellulo inhibition of IPC synthase activity (incorporation of BODIPY FL C5-ceramide into IPC)” value at in cellulo LmjFIPCS was “considerably greater in cellulo inhibition of IPC synthase activity than compound 1; also recorded: greater activity against in cellulo LmjFIPCS than compound 1”.
